As a reminder, the IC50 is the point on the concentration scale where inhibition reaches its midpoint. Lower therefore signals higher potency.

The structures appear in SMILES notation.

In this assay the target is human P2X3 receptor (Homo sapiens (Human), UniProt P56373). The assay can be described thus: P2X3 receptor inhibition, ATP-evoked Fluo-3 fluorescence (FDSS 3000). In kind it is cell-based. The following applies: C6BU-1 cell transfected with human P2X3 receptor gene.
human P2X3 receptor, sequence (P56373 whole entry): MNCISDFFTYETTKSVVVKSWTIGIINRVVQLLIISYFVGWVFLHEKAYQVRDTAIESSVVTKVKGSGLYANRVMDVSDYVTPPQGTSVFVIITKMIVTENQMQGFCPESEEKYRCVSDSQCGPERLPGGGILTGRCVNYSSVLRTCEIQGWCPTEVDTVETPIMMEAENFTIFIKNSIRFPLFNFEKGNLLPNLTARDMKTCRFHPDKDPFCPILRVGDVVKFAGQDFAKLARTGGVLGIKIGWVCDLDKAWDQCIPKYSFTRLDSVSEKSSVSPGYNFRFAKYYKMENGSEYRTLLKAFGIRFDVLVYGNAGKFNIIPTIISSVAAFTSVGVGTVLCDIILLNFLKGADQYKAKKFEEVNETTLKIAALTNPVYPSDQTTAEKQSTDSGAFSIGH
As for `Cc1ccc(Cn2c(Nc3cccc(C(F)(F)F)c3)nc(=O)n(C(C)C)c2=O)cc1` [I-021], the IC50 is 0.197 µM.
`CCCCn1c(=O)nc(Nc2cccc(C(F)(F)F)c2)n(Cc2ccc(C)cc2)c1=O` [I-029]: it took 0.595 µM to reach half-maximal inhibition (IC50).
`Cc1ccc(Cn2c(Nc3cccc(C(F)(F)F)c3)nc(=O)n(C(C)(C)C)c2=O)cc1` [I-097] registered an IC50 of 0.505 µM.
Next, `Cc1ccc(Cn2c(Nc3ccc(Oc4ccccc4)cc3)nc(=O)n(C(C)C)c2=O)cc1` [I-116]: 0.484 µM; `Cc1ccc(Cn2c(Nc3cccc(Cl)c3)nc(=O)n(C(C)C)c2=O)cc1` [I-117]: 0.387 µM.
In turn, `CSc1cccc(Nc2nc(=O)n(C(C)C)c(=O)n2Cc2ccc(C)cc2)c1` [I-118] had an IC50 of 0.231 µM.
Next, `Cc1ccc(Cn2c(Nc3ccc4[nH]ccc4c3)nc(=O)n(C(C)C)c2=O)cc1` [I-123]: 0.815 µM; `CC(C)n1c(=O)nc(Nc2cccc(C(F)(F)F)c2)n(Cc2ccc(F)cc2)c1=O` [I-126]: 0.689 µM; `CC(C)n1c(=O)nc(Nc2ccc(Oc3ccccc3)cc2)n(Cc2ccc(F)cc2)c1=O` [I-128]: 0.84 µM.
Next, `CSc1cccc(Nc2nc(=O)n(C(C)C)c(=O)n2Cc2ccc(F)cc2)c1` [I-130]: 0.953 µM.
`CC(C)Oc1ccc(Nc2nc(=O)n(C(C)C)c(=O)n2Cc2ccc(F)cc2)cc1` [I-133]: the IC50 worked out at 0.339 µM.
On to `CCn1c(=O)nc(Nc2cccc(C(F)(F)F)c2)n(Cc2ccc(F)cc2)c1=O` [I-138], for which the 50% inhibitory concentration (IC50) was found to be 0.619 µM.
Next, `CCn1c(=O)nc(Nc2ccc(Oc3ccccc3)cc2)n(Cc2ccc(F)cc2)c1=O` [I-141]: 0.685 µM; `CC(C)n1c(=O)nc(Nc2cccc(C(F)(F)F)c2)n(Cc2ccc(Cl)cn2)c1=O` [I-162]: 0.379 µM; `CC(C)n1c(=O)nc(Nc2ccc(Oc3ccccc3)cc2)n(Cc2ccc(Cl)cn2)c1=O` [I-164]: 0.86 µM.
On to `CC(C)n1c(=O)nc(Nc2cccc(OC(F)(F)F)c2)n(Cc2ccc(F)cc2)c1=O` [I-181], for which the IC50 was found to be 0.985 µM.
The same measure for `CC(C)n1c(=O)nc(Nc2cccc(F)c2)n(Cc2ccc(F)cc2)c1=O` [I-182]: 0.714 µM.
The same measure for `CC(C)Oc1ccc(Nc2nc(=O)n(C(C)C)c(=O)n2Cc2ccc(F)cc2)cc1Cl` [I-203]: 0.11 µM; for `CC(C)Oc1ccc(Nc2nc(=O)n(C(C)C)c(=O)n2Cc2ccc(F)cc2)cc1C(F)(F)F` [I-204]: 0.558 µM; for `Cc1ccc(Cn2c(Nc3ccc(OC(C)C)cc3)nc(=O)n(C(C)C)c2=O)cc1F` [I-217]: 0.268 µM.
Molecule `Cc1ccc(Cn2c(Nc3ccc(OC(C)C)cc3)nc(=O)n(C(C)C)c2=O)cc1[N+](=O)[O-]` [I-218] registered a 50% inhibitory concentration (IC50) of 0.505 µM.
Next, `COC(=O)c1ccc(Nc2nc(=O)n(C(C)C)c(=O)n2Cc2ccc(F)cc2)cc1` [I-221]: 0.276 µM; `CC(Nc1nc(=O)n(C(C)C)c(=O)n1Cc1ccc(F)cc1)c1ccc(Cl)cc1` (centres unmarked) [I-223]: 0.909 µM; `CC(C)Oc1ccc(Nc2nc(=O)n(C(C)C)c(=O)n2Cc2ccc(F)cc2)cc1C#N` [I-227]: 0.97 µM.
With `CC(C)Oc1ccc(Nc2nc(=O)n(C(C)C)c(=O)n2Cc2ccc(Cl)nc2)cc1Cl` [I-235], the IC50 was 0.985 µM.
Next, `COCCOc1ccc(Nc2nc(=O)n(C(C)C)c(=O)n2Cc2ccc(Cl)cc2)cc1Cl` [I-237]: 0.23 µM; `COC(=O)c1ccc(Nc2nc(=O)n(C(C)C)c(=O)n2Cc2ccc(F)cc2)cc1Cl` [I-238]: 0.658 µM.
The same measure for `CC(C)n1c(=O)nc(Nc2ccc(OC3CCOCC3)c(Cl)c2)n(Cc2ccc(Cl)cc2)c1=O` [I-239]: 0.116 µM; for `CCOC(=O)COc1ccc(Nc2nc(=O)n(C(C)C)c(=O)n2Cc2ccc(Cl)cc2)cc1Cl` [I-241]: 0.447 µM; for `CC(C)Oc1ccc(Nc2nc(=O)n(C(C)C)c(=O)n2Cc2ccc(Cl)cc2)cc1C#N` [I-245]: 0.168 µM.
The same measure for `CC(C)n1c(=O)nc(Nc2ccc3[nH]c(=O)oc3c2)n(Cc2ccc(Cl)cc2)c1=O` [I-246]: 0.996 µM.
For the molecule `CC(C)CNC(=O)c1ccc(Nc2nc(=O)n(C(C)C)c(=O)n2Cc2ccc(Cl)cc2)cc1` [I-256], the IC50 came to 0.867 µM.
The molecule `CC(C)n1c(=O)nc(Nc2ccc(C(=O)NC3CC3)cc2)n(Cc2ccc(Cl)cc2)c1=O` [I-257] had an IC50 of 0.682 µM.
The same measure for `CC(C)n1c(=O)nc(Nc2ccc(C(=O)NCC3CC3)cc2)n(Cc2ccc(Cl)cc2)c1=O` [I-258]: 0.683 µM.
`CC(C)n1c(=O)nc(Nc2ccc(C(=O)Nc3ccccc3)cc2)n(Cc2ccc(Cl)cc2)c1=O` [I-266] yielded an IC50 of 0.861 µM.
The same measure for `COc1cc(Cl)ccc1Cn1c(Nc2ccc(OC(C)C)c(F)c2)nc(=O)n(C(C)C)c1=O` [I-270]: 0.271 µM; for `CC(C)Oc1ccc(Nc2nc(=O)n(CC3CC3)c(=O)n2Cc2ccc(Cl)cc2)cc1F` [I-271]: 0.032 µM.
Consider `CC(C)Oc1ccc(Nc2nc(=O)n(CCN(C)C)c(=O)n2Cc2ccc(Cl)cc2)cc1F` [I-272], for which the IC50 is 0.18 µM.
`CC(C)Oc1ccc(Nc2nc(=O)n(CC(C)(CO)CO)c(=O)n2Cc2ccc(Cl)cc2)cc1F` [I-274] registered an IC50 of 0.009 µM.
The same measure for `CC(C)Oc1ccc(Nc2nc(=O)n(CC3CCOCC3)c(=O)n2Cc2ccc(Cl)cc2)cc1F` [I-275]: 0.021 µM.
The molecule `CC(C)Oc1ccc(Nc2nc(=O)n(CC(CO)CO)c(=O)n2Cc2ccc(Cl)cc2)cc1F` [I-276] displayed an IC50 of 0.012 µM.
Next, `O=c1nc(Nc2ccc(-c3ccon3)cc2)n(Cc2ccc(Cl)cc2)c(=O)n1CCO` [I-278]: 0.931 µM; `COCCn1c(=O)nc(Nc2ccc(OC(C)C)c(F)c2)n(Cc2ccc(Cl)cc2)c1=O` [I-280]: 0.03 µM; `CC(C)Oc1ccc(Nc2nc(=O)n(CCN3CCOCC3)c(=O)n2Cc2ccc(Cl)cc2)cc1F` [I-281]: 0.012 µM.
The same measure for `CC(C)Oc1ccc(Nc2nc(=O)n(CCN3CCCCC3)c(=O)n2Cc2ccc(Cl)cc2)cc1F` [I-282]: 0.027 µM; for `CC(C)Oc1ccc(Nc2nc(=O)n(CC(F)(F)C(=O)O)c(=O)n2Cc2ccc(Cl)cc2)cc1F` [I-283]: 0.019 µM.
In turn, `CC(C)Oc1ccc(Nc2nc(=O)n(C(CO)CO)c(=O)n2Cc2ccc(Cl)cc2)cc1F` [I-286] gave an IC50 of 0.277 µM.
`O=c1nc(Nc2ccc(-c3ccon3)cc2)n(Cc2ccc(Cl)cc2)c(=O)n1CCN1CCOCC1` [I-287] gave an IC50 of 0.222 µM.
Next, `CC(C)Oc1ccc(Nc2nc(=O)n(CCN)c(=O)n2Cc2ccc(Cl)cc2)cc1F` [I-290]: 0.266 µM.
`CC(C)Oc1ccc(Nc2nc(=O)n(CC(=O)N(C)C)c(=O)n2Cc2ccc(Cl)cc2)cc1F` [I-293] displayed an IC50 of 0.351 µM.
Next, `CNC(=O)Cn1c(=O)nc(Nc2ccc(OC(C)C)c(F)c2)n(Cc2ccc(Cl)cc2)c1=O` [I-294]: 0.04 µM; `CC(C)Oc1ccc(Nc2nc(=O)n(CC(N)=O)c(=O)n2Cc2ccc(Cl)cc2)cc1F` [I-295]: 0.046 µM; `CC(C)Oc1ccc(Nc2nc(=O)n(CCC(=O)N(C)C)c(=O)n2Cc2ccc(Cl)cc2)cc1F` [I-297]: 0.045 µM.
The molecule `CC(C)Oc1ccc(Nc2nc(=O)n(Cc3ccccn3)c(=O)n2Cc2ccc(Cl)cc2)cc1F` [I-300] registered an IC50 of 0.025 µM.
Molecule `COc1ccc(Nc2nc(=O)n(CCO)c(=O)n2Cc2ccc(Cl)cc2)cc1F` [I-305] came in with an IC50 of 0.946 µM.
Next, `CCOc1ccc(Nc2nc(=O)n(CCO)c(=O)n2Cc2ccc(Cl)cc2)cc1` [I-307]: 0.25 µM; `O=c1nc(Nc2cccc(OC(F)(F)F)c2)n(Cc2ccc(Cl)cc2)c(=O)n1CCO` [I-309]: 0.357 µM.
Next, `CC(C)Oc1ccc(Nc2nc(=O)n(C(F)F)c(=O)n2Cc2ccc(Cl)cc2)cc1F` [I-310]: 0.389 µM; `O=c1nc(Nc2ccc(N3CCCCC3)cc2)n(Cc2ccc(Cl)cc2)c(=O)n1CCO` [I-311]: 0.142 µM.
`CCOc1ccc(Nc2nc(=O)n(CCO)c(=O)n2Cc2ccc(Cl)cc2)cc1F` [I-312] had an IC50 of 0.104 µM.
Next, `O=c1nc(Nc2cccc(C(F)(F)F)c2)n(Cc2ccc(Cl)cc2)c(=O)n1CCO` [I-313]: 0.178 µM.
The same measure for `O=c1nc(Nc2cccc(-c3ccon3)c2)n(Cc2ccc(Cl)cc2)c(=O)n1CCO` [I-314]: 0.555 µM.
Next, `O=c1nc(Nc2ccc(C(F)(F)F)c(F)c2)n(Cc2ccc(Cl)cc2)c(=O)n1CCO` [I-315]: 0.183 µM; `O=c1nc(Nc2ccc(F)c(F)c2)n(Cc2ccc(Cl)cc2)c(=O)n1CCO` [I-316]: 0.712 µM.
`CC(C)Oc1ccc(Nc2nc(=O)n(CCCN)c(=O)n2Cc2ccc(Cl)cc2)cc1F` [I-317] yielded an IC50 of 0.137 µM.
The same measure for `CCCOc1ccc(Nc2nc(=O)n(CCO)c(=O)n2Cc2ccc(Cl)cc2)cc1F` [I-321]: 0.033 µM.
Next, `O=c1nc(Nc2ccc(OC3CCCC3)cc2)n(Cc2ccc(Cl)cc2)c(=O)n1CCO` [I-322]: 0.112 µM; `CC(C)COc1ccc(Nc2nc(=O)n(CCO)c(=O)n2Cc2ccc(Cl)cc2)cc1F` [I-323]: 0.148 µM.
In the case of `O=c1nc(Nc2ccc(OC3CCOCC3)cc2)n(Cc2ccc(Cl)cc2)c(=O)n1CCO` [I-324], the IC50 amounted to 0.309 µM.
On to `CC(C)Oc1ccc(Nc2nc(=O)n(CCO)c(=O)[nH]2)cc1F` [I-325], for which it took 0.665 µM to reach half-maximal inhibition (IC50).
Consider `CC(C)Cc1ccc(Nc2nc(=O)n(CCO)c(=O)n2Cc2ccc(Cl)cc2)cc1` [I-328], for which half-maximal inhibition (IC50) was put at 0.124 µM.
In turn, `O=c1nc(Nc2ccc(OC(F)F)cc2)n(Cc2ccc(Cl)cc2)c(=O)n1CCO` [I-329] had an IC50 of 0.266 µM.
As for `N#CCOc1ccc(Nc2nc(=O)n(CCO)c(=O)n2Cc2ccc(Cl)cc2)cc1` [I-330], it took 0.594 µM to reach half-maximal inhibition (IC50).
The same measure for `CC(C)Oc1ccc(Nc2nc(=O)n(CC(C)(C)CN)c(=O)n2Cc2ccc(Cl)cc2)cc1F` [I-331]: 0.066 µM; for `CC(C)Oc1ccc(Nc2nc(=O)n(CC(C)(C)CO)c(=O)n2Cc2ccc(Cl)cc2)cc1F` [I-332]: 0.008 µM.
As for `CC(C)Oc1ccc(Nc2nc(=O)n(CCO)c(=O)n2Cc2ccc(F)cc2)cc1F` [I-333], the IC50 was determined as 0.192 µM.
Molecule `O=c1nc(Nc2ccc(Oc3ccccc3)cc2)n(Cc2ccc(Cl)cc2)c(=O)n1CCO` [I-334] displayed an IC50 of 0.099 µM.

The values are drawn from patent publication US9150546B2, “Triazine derivative and pharmaceutical composition comprising the same” (SHIONOGI & CO., LTD., priority 2009, dated 2015).
